Test results: patent publication US20210220481A1, “BIOCOMPATIBLE TOLEROGENIC NANOPARTICLES” (INSERM (Institut National de la Santé et de la Recherche …, priority 2018, published 2021)

What was measured:
Solubility = assay type: physicochemical
[1] = target: T1, aryl hydrocarbon receptor (AhR) (Mus musculus, UniProt P30561); assay: ITE biological activity: AhRR gene expression in BMDCs by qPCR; assay type: cell-based; conditions: 24 h, 14 μmol·L^−1 ITE or equivalent amount as NPs
T1 sequence (P30561 10-848): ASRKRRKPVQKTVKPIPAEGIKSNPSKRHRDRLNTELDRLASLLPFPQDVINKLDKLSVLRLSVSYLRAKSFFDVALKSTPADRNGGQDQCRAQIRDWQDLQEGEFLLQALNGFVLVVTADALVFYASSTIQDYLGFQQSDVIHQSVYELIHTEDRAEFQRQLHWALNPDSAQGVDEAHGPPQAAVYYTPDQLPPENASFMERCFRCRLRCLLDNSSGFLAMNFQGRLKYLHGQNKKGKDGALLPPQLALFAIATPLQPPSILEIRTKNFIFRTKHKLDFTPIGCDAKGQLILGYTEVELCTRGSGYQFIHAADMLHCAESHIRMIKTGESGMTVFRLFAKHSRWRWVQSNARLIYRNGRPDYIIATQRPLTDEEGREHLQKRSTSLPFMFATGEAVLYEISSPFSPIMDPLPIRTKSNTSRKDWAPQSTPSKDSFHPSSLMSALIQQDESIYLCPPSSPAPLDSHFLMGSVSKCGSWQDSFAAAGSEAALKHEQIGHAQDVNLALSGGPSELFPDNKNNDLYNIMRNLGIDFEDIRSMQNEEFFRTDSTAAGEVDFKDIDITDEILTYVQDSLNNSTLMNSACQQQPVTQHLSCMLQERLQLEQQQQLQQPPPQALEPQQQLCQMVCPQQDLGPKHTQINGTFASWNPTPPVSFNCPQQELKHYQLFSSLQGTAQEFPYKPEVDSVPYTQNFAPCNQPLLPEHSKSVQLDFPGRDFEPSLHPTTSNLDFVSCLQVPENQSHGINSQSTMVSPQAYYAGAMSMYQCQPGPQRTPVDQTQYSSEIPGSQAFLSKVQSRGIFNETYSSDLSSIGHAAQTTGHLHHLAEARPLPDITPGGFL
Description: Mouse bone marrow dendritic cells: BMDCs were prepared from progenitor cells isolated from the femurs and tibias of female mice between 8 and 10 wk of age, as previously described in Inaba et al. (“Generation of large numbers of dendritic cells from mouse bone marrow cultures supplemented with granulocyte/macrophage colony-stimulating factor”; J Exp Med 1992, 176 (6), 1693-702). Bone marrow cells were plated on 15 cm petri dishes cell culture for a final volume of 20 mL per plate in Iscove's Modified Dulbecco's Medium (IMDM) containing 10% FCS, penicillin/streptomycin 100 μg/ml, L-Glutamine 2 mmol.L^−1 and β-mercapthoethanol 50 μmol.L^−1, and supplemented with 10 ng/ml murine GM-CSF (R&D Systems) for 8 days. Half of the medium was replaced on day 4 of culture.
ITE biological activity. On day 7 of BMDC culture, cells were incubated 24 h with 14 μmol·L^−1 ITE in 0.2% DMSO and equivalent amount of ITE as USPIO-PEG-ITE NPs in water. On day 8, total RNA was prepared by the RNAspin mini kit (GE Healthcare). cDNA was obtained using the RevertAid RT Reverse Transcription Kit (Thermo Scientific) with 1 μg of total RNA. Quantitative PCR (qPCR) was performed with the SYBR Green method using Takyon ROX qPCR SYBR MasterMix blue dTTP (Eurogentec).

[2] = Quantification of NP uptake in organs by VSM magnetometry; assay type: in vivo, NOD and B6 mice
Description: For mechanistic studies, MRI and histological studies, 3 B6 mice/time points aged 10 and 12 weeks were used as control. 3 Female NOD mice/time points were used as pre-diabetic mice between 10 and 12 weeks of age. NPs were administrated intravenously (i.v.) as a bolus of 200 μmolFe/kg diluted in 200 μL of vehicle (NaCl 0.9%/Glucose 5%).
Quantification of NP uptake in organs by VSM: Pancreas, lung, liver, spleen, kidneys and PLN were collected 1 h, 5 h, 24 h, 48 h and 72 h after intravenous injection of USPIO-PEG-ITE-P3UMPI (200 μmolFe/kg) or vehicle (NaCl 0.9%/Glucose 5%) in NOD and B6 mice. Collected organs were frozen in liquid nitrogen, lyophilized and ground to a powder using a mortar and pestle. Sample magnetism was analyzed by a VSM (VSM Quantum Design, Versalab) at room temperature. Amount of iron per organ was calculated from the NP magnetization at saturation (expressed in emu/g of iron).

With `COC(=O)c1csc(C(=O)c2c[nH]c3ccccc23)n1` [ITE, 2-(1′H-indole-3′-carbonyl)-thiazole-4-carboxylic acid methyl ester] the Solubility (Solubility) was “soluble only in DMSO and ethanol”, the AhRR expression [1] was “induced” and the “Estimation of drug dose released in pancreas: ITE” value (from here on “Estimation of drug dose released”) ([2]; B6 mice, 1 H after iv injection of USPIO-PEG-ITE-P3UmPI, considering no drug release before pancreas targeting) was 0.39 mmol. For the same compound, the “Estimation of drug dose released” value ([2]; B6 mice, 5 H after iv injection) was 0.99 mmol, the “Estimation of drug dose released” value ([2]; B6 mice, 24 H after iv injection) was 0 mmol and the “Estimation of drug dose released” value ([2]; B6 mice, 48 H after iv injection) was 0.15 mmol. For the same compound, the “Estimation of drug dose released” value ([2]; B6 mice, 72 H after iv injection) was 0.33 mmol, the “Estimation of drug dose released” value ([2]; NOD mice, 1 H after iv injection) was 1.54 mmol and the “Estimation of drug dose released” value ([2]; NOD mice, 5 H after iv injection) was 2.98 mmol. For the same compound, the “Estimation of drug dose released” value ([2]; NOD mice, 24 H after iv injection) was 0.37 mmol, the “Estimation of drug dose released” value ([2]; NOD mice, 48 H after iv injection) was 1.78 mmol and the “Estimation of drug dose released” value ([2]; NOD mice, 72 H after iv injection) was 0.91 mmol.
